One test has as its target T1, PPARα (Homo sapiens, UniProt Q07869).
T1 construct: PPARα (aa 167 to 469); made in house; host or cells: E. coli BL21 (pLysS)
T1 sequence (Q07869 167-468 limits assumed): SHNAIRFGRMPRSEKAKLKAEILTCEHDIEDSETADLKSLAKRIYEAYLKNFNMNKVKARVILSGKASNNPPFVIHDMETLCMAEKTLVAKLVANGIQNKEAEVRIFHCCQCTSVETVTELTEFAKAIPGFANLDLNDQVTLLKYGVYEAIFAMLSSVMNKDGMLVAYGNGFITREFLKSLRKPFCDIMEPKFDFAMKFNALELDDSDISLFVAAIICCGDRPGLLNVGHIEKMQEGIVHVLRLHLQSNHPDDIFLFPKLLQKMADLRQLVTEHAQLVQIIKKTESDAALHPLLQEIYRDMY
Put plainly: PPARα radioligand binding assay (SPA, GST-PPARα-LBD). The text has this: (§1) Background information on the performed assays can be found in: Nichols J S et al. “Development of a scintillation proximity assay for peroxisome proliferator-activated receptor gamma ligand binding domain”, (1998) Anal. Biochem. 257: 112-119.
(§2) Full-length cDNA clones for humans PPARδ and PPARα and mouse PPARγ were obtained by RT-PCR from human adipose and mouse liver cRNA, respectively, cloned into plasmid vectors and verified by DNA sequencing. Bacterial and mammalian expression vectors were constructed to produce glutathione-s-transferase (GST) and Gal4 DNA binding domain proteins fused to the ligand binding domains (LBD) of PPARδ (aa 139 to 442), PPARγ (aa 174 to 476) and PPARα (aa 167 to 469). To accomplish this, the portions of the cloned sequences encoding the LBDs were amplified from the full-length clones by PCR and then subcloned into the plasmid vectors. Final clones were verified by DNA sequence analysis.
(§3) Induction, expression, and purification of GST-LBD fusion proteins were performed in E. coli strain BL21 (pLysS) cells by standard methods (Ref: Current Protocols in Molecular Biology, Wiley Press, edited by Ausubel et al.).
(§4) PPARα receptor binding was assayed in TKE50 (50 mM Tris-HCl, pH 8, 50 mM KCl, 2 mM EDTA, 0.1 mg/ml fatty acid-free BSA and 10 mM DTT). For each 96 well reaction an 140 ng equivalent of GST-PPARα-LBD fusion protein was bound to 10 μg SPA beads (PharmaciaAmersham) in a final volume of 50 μl by shaking. The resulting slurry was incubated for 1 h at RT and centrifuged for 2 min at 1300 g. The supernatant containing unbound protein was removed and the semidry pellet containing the receptor-coated beads was resolved in 50 μl of TKE. […] All binding assays were performed in 96 well plates and the amount of bound ligand measured on a Packard TopCount using OptiPlates (Packard). Nonspecific binding was determined in the presence of 10^−4 M unlabelled compound. […]

A further test concerns the target T2, PPARγ (Mus musculus, UniProt P37238).
T2 construct: PPARγ (aa 174 to 476); made in house; host or cells: E. coli BL21 (pLysS)
T2 sequence (P37238 204-505): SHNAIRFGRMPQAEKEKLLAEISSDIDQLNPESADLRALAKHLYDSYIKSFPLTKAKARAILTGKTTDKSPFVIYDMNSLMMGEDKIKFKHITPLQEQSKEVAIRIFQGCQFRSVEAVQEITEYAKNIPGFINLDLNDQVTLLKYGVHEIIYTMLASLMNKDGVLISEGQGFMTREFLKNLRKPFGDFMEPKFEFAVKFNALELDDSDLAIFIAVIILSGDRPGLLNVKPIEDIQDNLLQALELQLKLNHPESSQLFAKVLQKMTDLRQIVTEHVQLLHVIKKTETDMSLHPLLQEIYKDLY
Nature of the test: PPARγ radioligand binding assay (SPA, GST-PPARγ-LBD).
Excerpt: as §1, §2, §3
as §4, with “PPARγ” for “PPARα”, “GST-PPARγ-LBD” for “GST-PPARα-LBD”, “ul” for “μl”

The target in a further test is T3, PPARδ (Homo sapiens, UniProt Q03181).
T3 construct: PPARδ (aa 139 to 442); made in house; host or cells: E. coli BL21 (pLysS)
T3 sequence (Q03181 139-441 limits assumed): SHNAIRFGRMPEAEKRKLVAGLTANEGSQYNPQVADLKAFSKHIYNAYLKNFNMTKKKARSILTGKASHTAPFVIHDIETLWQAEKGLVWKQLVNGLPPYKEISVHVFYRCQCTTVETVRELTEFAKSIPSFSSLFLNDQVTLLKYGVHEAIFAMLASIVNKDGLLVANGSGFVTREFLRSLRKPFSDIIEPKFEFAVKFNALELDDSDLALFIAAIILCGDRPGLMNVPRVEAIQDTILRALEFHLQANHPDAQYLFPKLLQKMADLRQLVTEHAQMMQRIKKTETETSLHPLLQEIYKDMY
Put plainly: PPARδ radioligand binding assay (SPA, GST-PPARδ-LBD).
Excerpt: as §1, §2, §3
PPARδ receptor binding was assayed in HNM10 (50 mM Hepes, pH 7.4, 10 mM NaCl, 5 mM MgCl2, 0.15 mg/ml fatty acid-free BSA and 15 mM DTT). For each 96 well reaction a 500 ng equivalent of GST-PPARδ-LBD fusion protein and radioligand, e.g. 20000 dpm {2-methyl-4-[4-methyl-2-(4-trifluoromethyl-phenyl)-thiazol-5-yl-ditritiomethylsulfanyl]-phenoxy}-acetic acid, was bound to 10 μg SPA beads (PharmaciaAmersham) in a final volume of 50 μl by shaking. The resulting slurry was incubated for 1 h at RT and centrifuged for 2 min at 1300 g. […] Radioligand was added and the reaction incubated at RT for 1 h and scintillation proximity counting performed in the presence of test compounds was determined. All binding assays were performed in 96 well plates and the amount of bound ligand was measured on a Packard TopCount using OptiPlates (Packard). […]

One may read the IC50 as the concentration at which inhibition is half-maximal. Take `Cc1cc(OCCNC(=O)c2cnc(-c3ccc(C(F)(F)F)cc3)nc2C2CC2)ccc1OC(C)(C)C(=O)O` [Example 20, 2-[4-(2-{[4-Cyclopropyl-2-(4-trifluoromethyl-phenyl)-pyrimidine-5-carbonyl]-amino}-ethoxy)-2-methyl-phenoxy]-2-methyl-propionic acid]: the concentration for half-maximal inhibition (IC50) on PPARα was determined as 24 nM; on PPARγ, 1080 nM; on PPARδ, 940 nM.
For `Cc1cc(OC(C)C(=O)Nc2cccc(-c3ccc(C(F)(F)F)cc3)c2)ccc1OC(C)(C)C(=O)O` (racemic) [Example 09, [rac]-2-Methyl-2-{2-methyl-4-[1-(4′-trifluoromethyl-biphenyl-3-ylcarbamoyl)-ethoxy)-phenoxy}-propionic acid] the same measures were 420 nM, > 10000 nM and 580 nM.
With `CC(C)(Oc1ccc(CCCC(=O)Nc2cnc(-c3ccc(C(F)(F)F)cc3)nc2C2CC2)cc1)C(=O)O` [Example 16, 2-(4-{3-[4-Cyclopropyl-2-(4-trifluoromethyl-phenyl)-pyrimidin-5-ylcarbamoyl]-propyl}-phenoxy)-2-methyl-propionic acid], the half-inhibitory concentration (IC50) at PPARα was 8 nM; on PPARγ it was > 10000 nM; on PPARδ, > 10000 nM.

The record behind these values is patent publication US20060183754A1, “Amide bridged piphenyl or biazaphenyl derivatives” (priority 2005, published 2006).
